Test results: US11964955B2, “Mixtures of cannabinoid compounds, and production and use thereof” (priority 2015, dated 2024)
Entries after “also recorded” stand apart in the source; their conditions may differ. Like-named read-outs stand apart in the source and are kept apart here.

Experiments:
[1] = molecular target: CB2 receptor; conditions: Pertwee et al. Pharmacol. Rev. 2010; read-out: CB2 affinity (dissociation constant) listed in the literature; cited from earlier work
[2] = molecular target: T1, CB2 receptor (Homo sapiens, UniProt P34972); assay: Signal transmission (CRE-luciferase, forskolin) in CHO-CB2-CREluc cells, agonism; conditions: for Functional effect at the CB2 receptor (in words): FIGS. 2 and 3
T1 sequence (P34972 whole entry): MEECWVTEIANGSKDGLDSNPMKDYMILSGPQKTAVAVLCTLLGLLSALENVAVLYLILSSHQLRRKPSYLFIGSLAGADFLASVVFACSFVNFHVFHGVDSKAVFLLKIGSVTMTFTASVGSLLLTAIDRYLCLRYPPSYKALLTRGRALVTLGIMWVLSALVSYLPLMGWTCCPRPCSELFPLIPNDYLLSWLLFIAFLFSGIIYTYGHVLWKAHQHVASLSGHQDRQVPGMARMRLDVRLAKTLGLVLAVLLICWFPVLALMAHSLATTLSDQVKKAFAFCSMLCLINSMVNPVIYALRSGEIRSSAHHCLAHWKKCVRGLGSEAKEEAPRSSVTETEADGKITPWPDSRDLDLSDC

[3] = molecular target: T2, CB1 receptor (Homo sapiens, UniProt P21554); assay: biochemical; format: binding; set-up: purchased RBHCB1M400UA
T2 sequence (P21554 whole entry): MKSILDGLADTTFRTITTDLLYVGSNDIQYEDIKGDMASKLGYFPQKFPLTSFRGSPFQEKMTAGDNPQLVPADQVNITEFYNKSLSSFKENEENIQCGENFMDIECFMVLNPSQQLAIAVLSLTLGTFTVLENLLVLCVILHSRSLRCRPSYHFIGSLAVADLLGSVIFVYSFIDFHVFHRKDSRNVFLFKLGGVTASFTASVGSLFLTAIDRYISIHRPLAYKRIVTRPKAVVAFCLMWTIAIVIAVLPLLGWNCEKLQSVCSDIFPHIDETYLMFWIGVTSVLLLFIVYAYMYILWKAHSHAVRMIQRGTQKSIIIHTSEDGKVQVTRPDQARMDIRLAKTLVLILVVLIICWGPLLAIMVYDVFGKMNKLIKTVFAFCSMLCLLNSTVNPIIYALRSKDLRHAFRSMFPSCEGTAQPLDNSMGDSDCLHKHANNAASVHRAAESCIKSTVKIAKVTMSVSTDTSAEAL

[4] = molecular target: T1, CB2 receptor; assay: Competition binding study with [3H]-CP55940 on membranes of CB2-transfected human cells; set-up: purchased RBXCB2M400UA; conditions: for Ki: mean +/- SEM, [3H]-CP55940 0.15 nM, triplicates; for Selectivity for CB2 compared to CB1 (fold): ratio of Ki CB1 to Ki CB2; for CB2 (% Binding): screening with a single high dose, displacement of [3H]-CP55940 0.15 nM
[5] = molecular target: T2, CB1 receptor; assay: Signal transmission (CRE-luciferase) in CHO-CB1-CREluc cells, agonism and antagonism versus WIN; conditions: for Functional effect at the CB1 receptor (in words): text and FIGS. 4 to 6

SMILES	Ki [1] [nM]	Agonism and antagonism at CB2 [2]	Functional effect at the CB2 receptor (in words) [2]	Binding to CB1 receptor (in words) [3]	CB1 (% Binding) [3]	Ki [3] [nM]	Binding to CB2 receptor (in words) [4]	Ki [4] [nM]	Selectivity for CB2 compared to CB1 (fold) [4] [fold]	CB2 (% Binding) [4]	Agonism and antagonism at CB1 [5]	Functional effect at the CB1 receptor (in words) [5]	Ki ([3]; read-out: Ki for CB1) [nM]
C=C(C)[C@@H]1CCC(C)C=C1c1c(O)cc(CCC)c(C(=O)OC2CCCCC2)c1O (stereo partly shown) [CHCBDV, cyclohexylcannabidivarinolat]		++	CB1 and CB2 agonist; also recorded: Dose-dependent agonism	strong binding to the receptors within the lower nanomolar range	82.4% (n = 4)	13.2 ± 0.85	strong binding to the receptors within the lower nanomolar range	4.62 ± 0.46	2.9	99.9% (n = 3)	++	CB1 and CB2 agonist; also recorded: Dose-dependent agonism	
C=C(C)[C@@H]1CCC(C)C=C1c1c(O)cc(CCC)c(C(=O)OCCCCCC)c1O (stereo partly shown) [HCBDV, hexylcannabidivarinolat]		0		strong binding to the receptors within the lower nanomolar range	91.1% (n = 4)	8.28 ± 0.69	strong binding to the receptors within the lower nanomolar range	9.91 ± 2.46	0.8	98.5% (n = 3)	++	selective activation of CB1 receptors; also recorded: Dose-dependent agonism	
C=C(C)[C@@H]1CCC(C)=C[C@H]1c1c(O)cc(CCC)c(C(=O)OCCO)c1O [HECBDV, 2-hydroxyethylcannabidivarinolat]		++	selective agonist; also recorded: Dose-dependent agonism		43.3% (n = 5)			168 ± 39.4	33.6	95.0% (n = 3)	−	inhibited; also recorded: Dose-dependent antagonism	5650 ± 3900
